Measurements as given in patent publication US20250290074A1, “TARGETED TREATMENT OF SPLICEOPATHY-INDUCED NEUROLOGICAL DISORDERS” (Auttx, LLC, priority 2022, published 2025).
Strand notation (5' to 3'): a small letter for the sugar, then the base; units joined by * are phosphorothioate-linked, units joined directly phosphodiester-linked; [ ] holds rarer units or linkages, { } end groups; capitals alone tell only the bases. e = 2'-O-(2-methoxyethyl) (MOE); [5mC] = 5-methylcytosine

Assays:
hsHNRNP L mRNA = assay: Time-course experiment, ASOs at 30 nM, hnRNP L mRNA by bDNA in BE(2)-M17 cells; assay type: cell-based, Homo sapiens; conditions: 30 nM ASO, mock controls set to 100%, incubations 24 h, 48 h, 72 h, time point not given
Protocol: Lipofectamine3000 (LF3000) was again used as the transfection agent. The transfection mixture was prepared identically on three plates. […] In this case, no outliers were removed. Data were generated in biological quadruplicates.
FIG. 26 includes a comparison of results from this study next to results from Example 7. Observing the results after 24 h incubation, similar data from the analysis in Example 7 were reproduced here.

[1] = test system: human hnRNP L (hsHNRNP L) mRNA; assay: 5-point dose response (DRC) of ASOs, hnRNP L mRNA by branched DNA assay in BE(2)-M17 cells; assay type: cell-based; conditions: 24 h; for max. upregulation [%] (MV normalized hsHNRNP L/hsGAPDH): Lipofectamine3000, highest 120 nM, four 4-fold dilutions, bDNA, negative controls set to 100%; for EC50: hsHNRNP L mRNA upregulation, XLfit
Excerpt: Data were generated in biological quadruplicates. […] No significant decrease in hsGAPDH mRNA levels was observed.
Details and data are shown in Table 9A-9B, FIG. 24, and FIG. 25A-25E. In some cases, there was dose dependent hsHNRNP L on-target mRNA upregulation to varying degrees when cells were transfected with ASO compounds of interest.

Row | Substance | MV normalized hsHNRNP L/hsGAPDH (hsHNRNP L mRNA) [%] | max. upregulation [%] (MV normalized hsHNRNP L/hsGAPDH) [1] | EC50 [1] [nM]
1 | Skip-6A-17: ASO TGGACGCTTCAACAGTGAGTTA (SEQ ID NO: 66), fully 2′-MOE, 5′-methyl C, phosphorothioate; exon 6A (antisense eT*eG*eG*eA*e[5mC]*eG*e[5mC]*eT*eT*e[5mC]*eA*eA*e[5mC]*eA*eG*eT*eG*eA*eG*eT*eT*eA; listed as Homo sapiens) | 64.5 | 46.9 | 10.6
2 | Skip-6A-3: ASO TAAATACAAGTCACGGTACACA (SEQ ID NO: 52), fully 2′-MOE, 5′-methyl C, phosphorothioate; upstream intron (antisense eT*eA*eA*eA*eT*eA*e[5mC]*eA*eA*eG*eT*e[5mC]*eA*e[5mC]*eG*eG*eT*eA*e[5mC]*eA*e[5mC]*eA; listed as Homo sapiens) | 29.0 | 22.1 | 9.29
3 | Skip-6A-2: ASO AGTCACGGTACACATCCGCTAC (SEQ ID NO: 51), fully 2′-MOE, 5′-methyl C, phosphorothioate; upstream intron (antisense eA*eG*eT*e[5mC]*eA*e[5mC]*eG*eG*eT*eA*e[5mC]*eA*e[5mC]*eA*eT*e[5mC]*e[5mC]*eG*e[5mC]*eT*eA*e[5mC]; listed as Homo sapiens) | 1.8 | 7.2 | 18.5
4 | Skip-6A-10: ASO GTCCCATCAAACATACACTGCG (SEQ ID NO: 59), fully 2′-MOE, 5′-methyl C, phosphorothioate; exon 6A (antisense eG*eT*e[5mC]*e[5mC]*e[5mC]*eA*eT*e[5mC]*eA*eA*eA*e[5mC]*eA*eT*eA*e[5mC]*eA*e[5mC]*eT*eG*e[5mC]*eG; listed as Homo sapiens) | 42.1 | 49.2 | 5.79
5 | Skip-6A-8: ASO ATACACTGCGACCCTGCATCAC (SEQ ID NO: 57), fully 2′-MOE, 5′-methyl C, phosphorothioate; upstream intron/exon (antisense eA*eT*eA*e[5mC]*eA*e[5mC]*eT*eG*e[5mC]*eG*eA*e[5mC]*e[5mC]*e[5mC]*eT*eG*e[5mC]*eA*eT*e[5mC]*eA*e[5mC]; listed as Homo sapiens) | 26.0 | 18.0 | 8.54
6 | 5UTR-V1-3: ASO GCAGCAGCCTCCGCGACATGGC (SEQ ID NO: 49), fully 2′-MOE, 5′-methyl C, phosphorothioate; hnRNP L 5′ UTR (antisense eG*e[5mC]*eA*eG*e[5mC]*eA*eG*e[5mC]*e[5mC]*eT*e[5mC]*e[5mC]*eG*e[5mC]*eG*eA*e[5mC]*eA*eT*eG*eG*e[5mC]; listed as Homo sapiens) | – | 22.4 | –
7 | 5UTR-V1-2: ASO TCCGCGACATGGCGGCGCAGAA (SEQ ID NO: 48), fully 2′-MOE, 5′-methyl C, phosphorothioate; hnRNP L 5′ UTR (antisense eT*e[5mC]*e[5mC]*eG*e[5mC]*eG*eA*e[5mC]*eA*eT*eG*eG*e[5mC]*eG*eG*e[5mC]*eG*e[5mC]*eA*eG*eA*eA; listed as Homo sapiens) | – | 16.2 | –
8 | 5UTR-V1-1: ASO ATGGCGGCGCAGAACCCGCCTC (SEQ ID NO: 47), fully 2′-MOE, 5′-methyl C, phosphorothioate; hnRNP L 5′ UTR (antisense eA*eT*eG*eG*e[5mC]*eG*eG*e[5mC]*eG*e[5mC]*eA*eG*eA*eA*e[5mC]*e[5mC]*e[5mC]*eG*e[5mC]*e[5mC]*eT*e[5mC]; listed as Homo sapiens) | – | 11.4 | –
